Test [1] has as its system Inositol Triphosphate, IP3. Nature of the test: Inositol Triphosphate, IP3; [3H]IP3. The format is binding. The note with it: 10^−5 M.
Test [2] has as its target Protein Tyrosine Phosphatase, PTP-CD45 (Homo sapiens, UniProt P08575). Nature of the test: Protein Tyrosine Phosphatase, PTP-CD45 (Human); substrate pNPP. The format is biochemical. As to conditions: read-out: Pass 1 (10^−5 M) % Inhibition.

Data on one molecule can be found in patent US20020187514A1 (priority 1999, published 2002).

Sequence of Protein Tyrosine Phosphatase, PTP-CD45 (P08575 26-1306): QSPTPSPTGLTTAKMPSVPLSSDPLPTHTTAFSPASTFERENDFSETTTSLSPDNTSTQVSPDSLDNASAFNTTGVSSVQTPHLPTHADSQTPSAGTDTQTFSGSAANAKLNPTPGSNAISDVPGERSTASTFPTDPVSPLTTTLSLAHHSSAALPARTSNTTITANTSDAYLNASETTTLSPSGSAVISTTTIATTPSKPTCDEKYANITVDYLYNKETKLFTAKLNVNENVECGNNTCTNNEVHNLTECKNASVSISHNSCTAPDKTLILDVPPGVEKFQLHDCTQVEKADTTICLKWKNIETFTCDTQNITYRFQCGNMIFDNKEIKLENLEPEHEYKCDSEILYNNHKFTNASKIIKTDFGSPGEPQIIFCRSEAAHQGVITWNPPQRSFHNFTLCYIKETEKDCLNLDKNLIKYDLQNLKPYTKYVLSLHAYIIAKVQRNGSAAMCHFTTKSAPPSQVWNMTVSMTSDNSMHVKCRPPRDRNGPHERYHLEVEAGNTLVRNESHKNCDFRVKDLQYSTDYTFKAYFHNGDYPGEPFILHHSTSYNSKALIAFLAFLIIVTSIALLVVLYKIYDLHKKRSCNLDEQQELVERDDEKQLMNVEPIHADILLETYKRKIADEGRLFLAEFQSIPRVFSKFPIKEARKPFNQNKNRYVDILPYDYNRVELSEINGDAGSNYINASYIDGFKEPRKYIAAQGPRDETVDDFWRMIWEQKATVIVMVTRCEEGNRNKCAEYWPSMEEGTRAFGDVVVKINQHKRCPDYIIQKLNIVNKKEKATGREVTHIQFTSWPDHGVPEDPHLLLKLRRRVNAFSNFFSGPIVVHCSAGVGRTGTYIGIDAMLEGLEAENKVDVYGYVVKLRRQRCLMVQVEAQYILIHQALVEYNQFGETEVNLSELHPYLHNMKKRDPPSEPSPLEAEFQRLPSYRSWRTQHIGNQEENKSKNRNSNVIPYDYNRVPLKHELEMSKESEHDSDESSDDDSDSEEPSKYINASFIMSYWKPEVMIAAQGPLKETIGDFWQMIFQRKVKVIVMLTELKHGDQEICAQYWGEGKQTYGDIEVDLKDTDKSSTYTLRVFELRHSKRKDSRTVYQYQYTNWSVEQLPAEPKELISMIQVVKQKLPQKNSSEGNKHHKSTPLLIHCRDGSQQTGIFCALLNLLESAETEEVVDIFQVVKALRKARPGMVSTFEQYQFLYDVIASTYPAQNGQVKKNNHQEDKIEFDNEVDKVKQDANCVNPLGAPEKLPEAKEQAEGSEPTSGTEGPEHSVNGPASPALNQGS

Broadly, the inhibition is how much of the control response was suppressed. Take `COC(=O)[C@H]1[C@@H](OC(=O)c2ccccc2)C[C@@H]2CC[C@H]1N2C` [cocaine]: in test [1], the “Pass 1 (10^−5 M) % Inhibition” value is −19.14%. Also, the inhibition at 10 µM in test [2] was determined as 12%.
